Assay results taken from patent publication US20150218212A1, “FLUORINATED EPOXYKETONE-BASED TETRAPEPTIDE COMPOUNDS AND USES THEREOF AS PROTEASOME INHIBITORS” (FLUORINOV PHARMA INC., priority 2012, published 2015).

What was measured:
Type in all cases: cell-based, human
[1] = system: MCF7; test: NCI screening panel, MCF7 (Breast Cancer)
Description: (§1) Representative compounds of Formula I were screened using the National Cancer Institute (NCI) screening panel, which consists of a panel of human tumor cell lines, representing leukemia, melanoma, and cancers of the lung, colon, ovary, breast, prostate and renal system.
(§2) After 24 h, two plates of each cell line are fixed in situ with TCA, to represent a measurement of the cell population for each cell line at the time of drug addition (Tz). Experimental drugs are solubilised in dimethyl sulfoxide at 400-fold the desired final maximum test concentration and stored frozen prior to use. At the time of drug addition, an aliquot of frozen concentrate is thawed and diluted to twice the desired final maximum test concentration with complete medium containing 50 μg/mL gentamicin. Additional four, 10-fold or ½ log serial dilutions are made to provide a total of five drug concentrations plus control. Aliquots of 100 μl of these different drug dilutions are added to the appropriate microtiter wells already containing 100 μl of medium, resulting in the required final drug concentrations.
(§3) Following drug addition, the plates are incubated for an additional 48 h at 37° C., 5% CO2, 95% air, and 100% relative humidity. For adherent cells, the assay is terminated by the addition of cold TCA (trichloroacetic acid). Cells are fixed in situ by the gentle addition of 50 μl of cold 50% (w/v) TCA (final concentration, 10% TCA) and incubated for 60 minutes at 4° C. The supernatant is discarded, and the plates are washed five times with tap water and air dried. Sulforhodamine B (SRB) solution (100 μl) at 0.4% (w/v) in 1% acetic acid is added to each well, and plates are incubated for 10 minutes at room temperature. After staining, unbound dye is removed by washing five times with 1% acetic acid and the plates are air dried. Bound stain is subsequently solubilised with 10 mM trizma base, and the absorbance is read on an automated plate reader at a wavelength of 515 nm. For suspension cells, the methodology is the same except that the assay is terminated by fixing settled cells at the bottom of the wells by gently adding 50 μl of 80% TCA (final concentration, 16% TCA). Using the seven absorbance measurements [time zero, (Tz), control growth, (C), and test growth in the presence of drug at the five concentration levels (Ti)], the percentage growth is calculated at each of the drug concentrations levels. Percentage growth inhibition is calculated as: [(Ti−Tz)/(C−Tz)]×100 for concentrations for which Ti>/=Tz and [(Ti−Tz)/Tz]×100 for concentrations for which Ti<Tz.
(§4) Three dose response parameters are calculated for each experimental agent. Growth inhibition of 50% (GI50) is calculated from [(Ti−Tz)/(C−Tz)]×100=50, which is the drug concentration resulting in a 50% reduction in the net protein increase (as measured by SRB staining) in control cells during the drug incubation. The drug concentration resulting in total growth inhibition (TGI) is calculated from Ti=Tz. The LC50 (concentration of drug resulting in a 50% reduction in the measured protein at the end of the drug treatment as compared to that at the beginning) indicating a net loss of cells following treatment is calculated from [(Ti−Tz)/Tz]×100=−50. Values are calculated for each of these three parameters if the level of activity is reached. However, if the effect is not reached or is exceeded, the value for that parameter is expressed as greater or less than the maximum or minimum concentration tested.

[2] = system: SNB-19; test: NCI screening panel, SNB-19 (CNS Cancer)
Description: as §1, §2, §3, §4

[3] = system: DU-145; test: NCI screening panel, DU-145 (Prostate Cancer)
Description: as §1, §2, §3, §4

[4] = system: HT29; test: NCI screening panel, HT29 (Colon Cancer)
Description: as §1, §2, §3, §4

[5] = system: NCI-H23; test: NCI screening panel, NCI-H23 (Non-Small Cell Lung Cancer)
Description: as §1, §2, §3, §4

[6] = system: MDA-MB-468; test: NCI screening panel, MDA-MB-468 (Breast Cancer)
Description: as §1, §2, §3, §4

[7] = system: SK-MEL-28; test: NCI screening panel, SK-MEL-28 (Melanoma)
Description: as §1, §2, §3, §4

[8] = system: NCI-H460; test: NCI screening panel, NCI-H460 (Non-Small Cell Lung Cancer)
Description: as §1, §2, §3, §4

[9] = system: HCC-2998; test: NCI screening panel, HCC-2998 (Colon Cancer)
Description: as §1, §2, §3, §4

[10] = system: COLO 205; test: NCI screening panel, COLO 205 (Colon Cancer)
Description: as §1, §2, §3, §4

[11] = system: NCI-H226; test: NCI screening panel, NCI-H226 (Non-Small Cell Lung Cancer)
Description: as §1, §2, §3, §4

[12] = system: CAKI-1; test: NCI screening panel, CAKI-1 (Renal Cancer)
Description: as §1, §2, §3, §4

Row | SMILES | Log10GI50 [1] | Log10LC50 [1] | Log10TGI50 [1] | Log10GI50 [2] | Log10LC50 [2] | Log10TGI50 [2] | Log10GI50 [3] | Log10LC50 [3] | Log10TGI50 [3] | Log10GI50 [4] | Log10LC50 [4] | Log10TGI50 [4] | Log10GI50 [5] | Log10LC50 [5] | Log10TGI50 [5] | Log10GI50 [6] | Log10LC50 [6] | Log10TGI50 [6] | Log10GI50 [7] | Log10LC50 [7] | other results
1 | CC(C)C[C@H](NC(=O)[C@H](COC(F)F)NC(=O)CN1CCOCC1)C(=O)N[C@@H](Cc1ccccc1)C(=O)N[C@@H](CC(C)C)C(=O)[C@@]1(C)CO1 [Example 2, (2S)-N-[(1S)-1-benzyl-2-[[(1S)-3-methyl-1-[(2R)-2-methyloxirane-2-carbonyl]butyl]-amino]-2-oxo-ethyl]-2-[[(2S)-3-(difluoromethoxy)-2-[(2-morpholinoacetyl)amino]propanoyl]amino]-4-methyl-pentanamide] | <-8.00 | >−4.00 | −4.94 | −7.18 | >−4.00 | >−4.00 | −7.34 | >−4.00 | −5.00 | <−8.00 | >−4.00 | −7.04 | −7.73 | >−4.00 | −6.67 | −7.75 | −4.63 | −7.13 | −7.50 | −5.23 | Log10TGI50 [7]: −6.71; Log10GI50 [8]: −7.37; Log10LC50 [8]: >−4.00; Log10TGI50 [8]: −6.57; Log10GI50 [9]: −7.77; Log10LC50 [9]: −7.15; Log10TGI50 [9]: −7.46; Log10GI50 [10]: −7.44; Log10LC50 [10]: −5.93; Log10TGI50 [10]: −6.69; Log10GI50 [11]: −7.83; Log10LC50 [11]: −7.12; Log10TGI50 [11]: −7.48; Log10GI50 [12]: −6.68; Log10LC50 [12]: >−4.00; Log10TGI50 [12]: −5.93
2 | CC(C)C[C@H](NC(=O)[C@H](COC(F)F)NC(=O)CN1CCOCC1)C(=O)N[C@@H](Cc1ccccc1)C(=O)N[C@@H](Cc1ccccc1)C(=O)[C@@]1(C)CO1 [Example 3, (2S)-N-[(1S)-1-benzyl-2-[[(1S)-1-benzyl-2-[(2R)-2-methyloxiran-2-yl]-2-oxo-ethyl]amino]-2-oxo-ethyl]-2-[[(2S)-3-(difluoromethoxy)-2-[(2-morpholinoacetyl)-amino]propanoyl]amino]-4-methyl-pentan-amide] | <−8.00 | >−4.00 | −4.65 | −7.66 | >−4.00 | −4.54 | <−8.00 | −4.48 | −5.79 | <−8.00 | −4.44 | −6.25 | <−8.00 | −4.33 | −6.69 | <−8.00 | −6.09 | −7.34 | −7.65 | >−4.00 | Log10TGI50 [7]: −6.27; Log10GI50 [8]: −7.43; Log10LC50 [8]: −5.64; Log10TGI50 [8]: −6.77; Log10GI50 [9]: −7.78; Log10LC50 [9]: −7.18; Log10TGI50 [9]: −7.48; Log10GI50 [10]: −7.73; Log10LC50 [10]: −4.53; Log10TGI50 [10]: −6.48; Log10GI50 [11]: <−8.00; Log10LC50 [11]: −7.24; Log10TGI50 [11]: −7.92; Log10GI50 [12]: −7.11; Log10LC50 [12]: −4.92; Log10TGI50 [12]: −6.30
3 | CC(C)C[C@H](NC(=O)[C@H](COC(F)F)NC(=O)CN1CCOCC1)C(=O)N[C@@H](COC(F)F)C(=O)N[C@@H](Cc1ccccc1)C(=O)[C@@]1(C)CO1 [Example 4, (2S)-N-[(1S)-2-[[(1S)-1-benzyl-2-[(2R)-2-methyloxiran-2-yl]-2-oxo-ethyl]amino]-1-(difluoromethoxymethyl)-2-oxo-ethyl]-2-[[(2S)-3-(difluoromethoxy)-2-[(2-mor-pholinoacetyl)amino]propanoyl]amino]-4 methyl-pentanamide] | <−8.00 | >−4.00 | −4.82 | −7.14 | >−4.00 | >−4.00 | −7.19 | >−4.00 | −4.91 | −7.50 | >−4.00 | −5.63 | −7.51 | −4.31 | −6.63 | −7.35 | >−4.00 | −6.37 | −7.35 | −4.79 | Log10TGI50 [7]: −6.62; Log10GI50 [8]: −6.84; Log10LC50 [8]: −4.04; Log10TGI50 [8]: −6.19; Log10GI50 [9]: −7.29; Log10LC50 [9]: −6.30; Log10TGI50 [9]: −6.75; Log10GI50 [10]: −7.25; Log10LC50 [10]: −4.46; Log10TGI50 [10]: −6.28; Log10GI50 [11]: −7.66; Log10LC50 [11]: −6.57; Log10TGI50 [11]: −7.30; Log10GI50 [12]: −6.20; Log10LC50 [12]: >−4.00; Log10TGI50 [12]: −5.22
